Earlier results as cited in patent US20250127701A1, “Cosmetical use of a topically applicable rinse-of composition (RC)” (Wella Germany GmbH, priority 2023, published 2025).

Key:
[1] = target: T1, olfactory receptor OR2AT4 (Homo sapiens, UniProt A6NND4); details: receptor expressed in the epithelium of human hair follicles
T1 sequence (A6NND4 1-320): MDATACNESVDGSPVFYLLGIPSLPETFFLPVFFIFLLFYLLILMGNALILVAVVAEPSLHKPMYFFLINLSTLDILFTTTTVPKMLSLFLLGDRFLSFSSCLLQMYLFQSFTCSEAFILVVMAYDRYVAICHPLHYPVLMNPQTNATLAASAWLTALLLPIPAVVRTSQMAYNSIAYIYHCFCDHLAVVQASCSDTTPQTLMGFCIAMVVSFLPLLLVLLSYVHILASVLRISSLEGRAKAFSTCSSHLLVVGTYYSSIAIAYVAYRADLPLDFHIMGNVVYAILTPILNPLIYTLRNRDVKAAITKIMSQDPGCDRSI

[2] = system: hair shaft, hair matrix keratinocytes; details: studies have shown

SMILES | Effect on the olfactory receptor OR2AT4 [1] | Effect on anagen duration [2] | Effect on hair shaft elongation [2] | Effect on proliferation of hair matrix keratinocytes [2]
CC1=CCC(CCC(C)C(C)O)C1(C)C (stereo not shown) [Sandal pentanol, 3-methyl-5-(2,2,3-trimethylcyclopent-3-en-1-yl)pentan-2-ol] | stimulatory effect | – | – | –
Cn1c(=O)c2c(ncn2C)n(C)c1=O [caffeine, 1,3,7-trimethylxanthine] | – | prolonges anagen duration | enhances the hair shaft elongation | stimulates the proliferation of hair matrix keratinocytes
